Measured values: patent US12642769B2, “Delivery carrier into cell” (Kabusikikaisya ITO, priority 2019, dated 2026)

Key:
Type in all cases: cell-based
[1] = tested on: LabCyte EPI-MODEL normal skin epidermis model; assay: in vitro skin irritation test OECD TG-439, temperature-responsive carriers; conditions: the lower the score, the higher the toxicity; Water (negative control) 100 points
Method: In Vitro Skin Irritation Test of Cultured Cell According to OECD Guidelines. OECD
Guidelines for the Testing of Chemicals, 439. (2015)
LabCyte EPI-MODEL was used as a normal skin epidermis model, and a skin irritation test was performed and scored. As a result (the lower the score, the higher the toxicity), the score is 3 points for 5% SLS (positive control), 100 points for Water (negative control), 125 points for A-1 of the present invention, and B-1 was 101, C-1 was 89, and D-1 was 83, and the viable cell rate was 50% or higher in all the formulations. All skin irritation was denied.

[2] = tested on: LabCyte EPI-MODEL normal dermal epidermis model; assay: in vitro skin irritation test OECD 439, pH-responsive carriers; conditions: the lower the score, the higher the toxicity; Water (negative control) 100 points
Method: In vitro skin irritation tests were conducted using cultured cell according to OECD guidelines. We used OECD GUIDELINES FOR THE TESTING OF CHEMICALS, 439. (2015) for guidelines. As a result of the skin irritation test using LabCyte EPI-MODEL as a normal dermal epidermis model (the lower the score, the higher the toxicity and the lower the safety), the scores were 3 points for 5% SLS (positive control) and 100 points for Water (negative control), 134 points for A-2, 109 points for B-2,95 points for C-2, and 91 points for D-2, and the percentage of viable cell was more than 50% for all the preparations and the skin irritation was denied.

[3] = tested on: LabCyte EPI-MODEL normal skin epidermis model; assay: in vitro skin irritation test OECD 439, photoresponsive carriers; conditions: the higher the score, the higher the safety; Water (negative control) 100 points
Method: In vitro skin irritation tests were performed on cultured cell according to OECD guidelines. The guidelines used were OECD GUIDELINES FOR THE TESTING OF CHEMICALS, 439. (2015). LabCyte EPI-MODEL was used as a normal skin epidermis model, and a skin irritation test was performed and scored. As a result (the higher the score, the higher the safety), the score is 5% SLS (positive control) 3 points, Water (negative control) 100 points, A-1 of the present invention is 111 points, B-1 was 98 points, C-1 was 87 points, and D-1 was 79 points. The viable cell rate of all the preparations was 50% or more, and skin irritation was denied.

Measured: skin irritation test score

CCCCCCCCCCCCOS(=O)(=O)[O-].[Na+] [SLS]
3 points: all assays above
